Reference: patent publication US9856254B2, “Alkoxy substituted imidazoquinolines” (3M INNOVATIVE PROPERTIES COMPANY, priority 2003, dated 2018)
Several values for one entry are separate records, joined by “and”; a condition that tells them apart may be missing. Equal values may be shown once. Where a name gives a salt, the structure may show the parent alone.

melting point	SMILES
226.9 to 228.2 °C	Cc1nc2c(N)nc3cc(OCCNC(=O)OC(C)(C)C)ccc3c2n1CC(C)C [Example 9, tert-Butyl 2-{[4-amino-2-methyl-1-(2-methylpropyl)-1H-imidazo[4,5-c]quinolin-7-yl]oxy}ethylcarbamate]
230 to 232 °C	CCc1nc2c(N)nc3cc(OCCN4CCOCC4)ccc3c2n1CC1CCOCC1 [Example 568, 2-Ethyl-7-(2-morpholin-4-ylethoxy)-1-(tetrahydro-2H-pyran-4-ylmethyl)-1H-imidazo[4,5-c]quinolin-4-amine]
179 to 181 °C	CCCc1nc2c(N)nc3cc(OCCCNC(=O)C(C)C)ccc3c2n1CC(C)C [Example 15, N-{3-[4-Amino-1-(2-methylpropyl)-2-propyl-1H-imidazo[4,5-c]quinolin-7-yloxy]propyl}-2-methylpropanamide]
201 to 204 °C	CCCn1c(COC)nc2c(N)nc3ccc(OCC(=O)N4CCOCC4)cc3c21 [Example 557, 2-(Methoxymethyl)-8-(2-morpholin-4-yl-2-oxoethoxy)-1-propyl-1H-imidazo[4,5-c]quinolin-4-amine]
131 to 136 °C	COCCc1nc2c(N)nc3cc(OCC4OCCO4)ccc3c2n1CC(C)(C)O [Example 564, 1-[4-Amino-7-(1,3-dioxolan-2-ylmethoxy)-2-(2-methoxyethyl)-1H-imidazo[4,5-c]quinolin-1-yl]-2-methylpropan-2-ol]
213.7 to 215.7 °C	Cc1nc2c(N)nc3cc(OCCC4CCN(C(=O)NC5CCCCC5)CC4)ccc3c2n1CC(C)C [Example 403, 4-{2-[(4-Amino-1-isobutyl-2-methyl-1H-imidazo[4,5-c]quinolin-7-yl)oxy]ethyl}-N-cyclohexylpiperidine-1-carboxamide]
162 to 164 °C	CCOCc1nc2c(N)nc3cc(OC4CCN(C(C)=O)CC4)ccc3c2n1CC(C)(C)O [Example 656, 1-[7-[(1-Acetylpiperidin-4-yl)oxy]-4-amino-2-(ethoxymethyl)-1H-imidazo[4,5-c]quinolin-1-yl]-2-methylpropan-2-ol]
136 to 138 °C	CCCn1c(COCC)nc2c(N)nc3ccc(OCCCCCCNC(=O)C(C)C)cc3c21 [Example 407, N-(6-{[4-Amino-2-(ethoxymethyl)-1-propyl-1H-imidazo[4,5-c]quinolin-8-yl]oxy}hexyl)-2-methylpropanamide]
163 to 165 °C	CCOCc1nc2c(N)nc3cc(OCCN)ccc3c2n1CC(C)(C)O [Example 654, 1-[4-Amino-7-(2-aminoethoxy)-2-(ethoxymethyl)-1H-imidazo[4,5-c]quinolin-1-yl]-2-methylpropan-2-ol]
173 to 175 °C	CCCn1c(CCOC)nc2c(N)nc3cc(OC4CCN(C(=O)OC(C)(C)C)CC4)ccc3c21 [Example 387, tert-Butyl 4-{[4-amino-2-(2-methoxyethyl)-1-propyl-1H-imidazo[4,5-c]quinolin-7-yl]oxy}piperidine-1-carboxylate]
240 to 242 °C	CCCn1c(COCC)nc2c(N)nc3ccc(OCCNC(=O)C(C)C)cc3c21 (as salt: hydrochloride) [Example 5, N-(2-{[4-Amino-2-(ethoxymethyl)-1-propyl-1H-imidazo[4,5-c]quinolin-8-yl]oxy}ethyl)-2-methylpropanamide hydrochloride]
98 to 101 °C	CCOCc1nc2c(N)nc3cc(OCCCN4CCCC4=O)ccc3c2n1CCCCNC(=O)NC(C)C [Example 399, N-(4-{4-Amino-2-(ethoxymethyl)-7-[3-(2-oxopyrrolidin-1-yl)propoxy]-1H-imidazo[4,5-c]quinolin-1-yl}butyl)-N′-isopropylurea]
165 to 166 °C	CCCn1c(CCOC)nc2c(N)nc3cc(OC4CCN(C(=O)C(C)C)CC4)ccc3c21 [Example 389, 7-[(1-Isobutyrylpiperidin-4-yl)oxy]-2-(2-methoxyethyl)-1-propyl-1H-imidazo[4,5-c]quinolin-4-amine]
196.4 to 199.6 °C	CCCc1nc2c(N)nc3cc(OCCC4CCN(C(=O)OC(C)(C)C)CC4)ccc3c2n1CC(C)C [Example 22, tert-Butyl 4-(2-{[4-amino-1-(2-methylpropyl)-2-propyl-1H-imidazo[4,5-c]quinolin-7-yl]oxy}ethyl)piperidine-1-carboxylate]
176 to 179 °C	CCCn1c(CCOC)nc2c(N)nc3cc(OC4CCN(C(=O)NC(C)C)CC4)ccc3c21 [Example 388, 4-{[4-Amino-2-(2-methoxyethyl)-1-propyl-1H-imidazo[4,5-c]quinolin-7-yl]oxy}-N-isopropylpiperidine-1-carboxamide]
256.8 to 257.2 °C	CCCCc1nc2c(N)nc3ccc(OCC(=O)N4CCOCC4)cc3c2n1C [Example 32, 2-Butyl-1-methyl-8-(2-morpholin-4-yl-2-oxoethoxy)-1H-imidazo[4,5-c]quinolin-4-amine]
178 to 179.5 °C and 182 to 184.5 °C	CCCn1c(COCC)nc2c(N)nc3ccc(OCCNS(C)(=O)=O)cc3c21 [Example 3, N-[2-(4-Amino-2-ethoxymethyl-1-propyl-1H-imidazo[4,5-c]quinolin-8-yloxy)ethyl]methanesulfonamide]
164 to 168 °C	CCCc1nc2c(N)nc3cc(OCCCNS(=O)(=O)CCc4cccc5ccccc45)ccc3c2n1CC(C)C [Example 14, N-(3-{[4-Amino-1-(2-methylpropyl)-2-propyl-1H-imidazo[4,5-c]quinolin-7-yl]oxy}propyl)-2-(1-naphthyl)ethanesulfonamide]

melting point	SMILES
177 to 179 °C	CCCn1c(COCC)nc2c(N)nc3ccc(OC4CCN(C(=O)C(C)C)CC4)cc3c21 [Example 414, 2-(Ethoxymethyl)-8-[(1-isobutyrylpiperidin-4-yl)oxy]-1-propyl-1H-imidazo[4,5-c]quinolin-4-amine]
142 to 144 °C	CCCc1nc2c(N)nc3cc(OCCCN4CCCS4(=O)=O)ccc3c2n1CC(C)C [Example 13, 7-[3-(1,1-Dioxidoisothiazolidin-2-yl)propoxy]-1-(2-methylpropyl)-2-propyl-1H-imidazo[4,5-c]quinolin-4-amine]
203 to 208 °C	CCCn1c(COCC)nc2c(N)nc3ccc(OCCNC(=O)N4CCOCC4)cc3c21 [Example 4, N-(2-{[4-Amino-2-(ethoxymethyl)-1-propyl-1H-imidazo[4,5-c]quinolin-8-yl]oxy}ethyl)morpholine-4-carboxamide]
245 to 247 °C	CCc1nc2c(N)nc3cc(OCC(=O)N4CCOCC4)ccc3c2n1CC1CCOCC1 [Example 553, 2-Ethyl-7-(2-morpholin-4-yl-2-oxoethoxy)-1-(tetrahydro-2H-pyran-4-ylmethyl)-1H-imidazo[4,5-c]quinolin-4-amine]
183.5 to 184.5 °C	CCCn1c(CCO)nc2c(N)nc3cc(OCCCNC(=O)c4cccnc4)ccc3c21 [Example 396, N-(3-{[4-Amino-2-(2-hydroxyethyl)-1-propyl-1H-imidazo[4,5-c]quinolin-7-yl]oxy}propyl)nicotinamide]
202.5 to 204.5 °C	CCCn1c(COCC)nc2c(N)nc3ccc(OCCNC(=O)C4CCCO4)cc3c21 (centres unmarked) [Example 6, N-(2-{[4-Amino-2-(ethoxymethyl)-1-propyl-1H-imidazo[4,5-c]quinolin-8-yl]oxy}ethyl)tetrahydrofuran-2-carboxamide]
278 to 280 °C	CCOCc1nc2c(N)nc3cc(OC4CCNCC4)ccc3c2n1CC(O)CO (centres unmarked) (as salt: hydrochloride)
196 to 197 °C	CCCn1c(COCC)nc2c(N)nc3ccc(OCC(=O)N4CCOCC4)cc3c21 [Example 566, 2-(Ethoxymethyl)-8-(2-morpholin-4-yl-2-oxoethoxy)-1-propyl-1H-imidazo[4,5-c]quinolin-4-amine]
82 to 84 °C	CCOCc1nc2c(N)nc3cc(OCCNC(=O)OC(C)(C)C)ccc3c2n1CC1COC(C)(C)O1 (centres unmarked) [Example 372, tert-Butyl 2-{[4-amino-1-[(2,2-dimethyl-1,3-dioxolan-4-yl)methyl]-2-(ethoxymethyl)-1H-imidazo[4,5-c]quinolin-7-yl]oxy}ethylcarbamate]
157 to 159 °C	CCCn1c(COCC)nc2c(N)nc3ccc(OCCN)cc3c21 [Example 2, 8-(2-Aminoethoxy)-2-ethoxymethyl-1-propyl-1H-imidazo[4,5-c]quinolin-4-amine]
198 to 199.5 °C	CCCCc1nc2c(N)nc3ccc(OCCC4CCN(S(C)(=O)=O)CC4)cc3c2n1C [Example 41, 2-Butyl-8-{2-[1-(methanesulfonyl)piperidin-4-yl]ethoxy}-1-methyl-1H-imidazo[4,5-c]quinolin-4-amine]
146 to 148 °C	CCCn1c(COCC)nc2c(N)nc3ccc(OCCN4CCCCCC4)cc3c21 [Example 571, 8-(2-Azepan-1-ylethoxy)-2-(ethoxymethyl)-1-propyl-1H-imidazo[4,5-c]quinolin-4-amine]
205 to 208 °C	Cc1nc2c(N)nc3cc(OCCC4CCN(C(=O)N5CCOCC5)CC4)ccc3c2n1CC(C)C [Example 28, 2-Methyl-1-(2-methylpropyl)-7-{2-[1-(morpholin-4-ylcarbonyl)piperidin-4-yl]ethoxy}-1H-imidazo[4,5-c]quinolin-4-amine]
168 to 172 °C	CCCc1nc2c(N)nc3cc(OCCCCCCNC(C)=O)ccc3c2n1CCCCNS(C)(=O)=O [Example 48, N-(6-{4-Amino-1-[4-(methanesulfonylamino)butyl]-2-propyl-1H-imidazo[4,5-c]quinolin-7-yloxy}hexyl)acetamide]
145 °C	CCCc1nc2c(N)nc3cc(OCCCNC(=O)N4CCOCC4)ccc3c2n1CC(C)C [Example 20, N-(3-{[4-Amino-2-propyl-1-(2-methylpropyl)-1H-imidazo[4,5-c]quinolin-7-yl]oxy}propyl)morpholine-4-carboxamide]
298 °C (dec.)	Cc1nc2c(N)nc3ccc(OCC(=O)O)cc3c2n1C [Example 44, 2-[(4-Amino-1,2-dimethyl-1H-imidazo[4,5-c]quinolin-8-yl)oxy]acetic acid]
178 to 179 °C	CCCn1c(COCC)nc2c(N)nc3ccc(OCC4CCCO4)cc3c21 (centres unmarked) [Example 569, 2-(Ethoxymethyl)-1-propyl-8-(tetrahydrofuran-2-ylmethoxy)-1H-imidazo[4,5-c]quinolin-4-amine]
